Results published in paper PMC5926251 (Japanese Journal of Cancer Research : Gann, 2000).
pIC50, pKi: −log10 of the molar value. “And” between values parts separate entries of the source, which are not always exact repeats. Equal values may be shown once. Read-outs that look alike come from different tables or passages of the source. Values belong to the compound of their own block, whether it stands above or below them.

Legend:
DNA polymerase α [1] = molecular target: T1, DNA polymerase α (Bos taurus, UniProt A0AAA9TD94); assay: DNA polymerase assay, pol. α; format: biochemical, calf; conditions: for MIC Pol. α: Minimum inhibitory concentration: dose that resulted in inhibition of 80% or more of the activity; for MIC Pol. α / pIC50: Table I; for pIC50: 50%-inhibitory concentration; for Relative activity: Pol. α, Table III
T1 sequence (A0AAA9TD94 1-1441): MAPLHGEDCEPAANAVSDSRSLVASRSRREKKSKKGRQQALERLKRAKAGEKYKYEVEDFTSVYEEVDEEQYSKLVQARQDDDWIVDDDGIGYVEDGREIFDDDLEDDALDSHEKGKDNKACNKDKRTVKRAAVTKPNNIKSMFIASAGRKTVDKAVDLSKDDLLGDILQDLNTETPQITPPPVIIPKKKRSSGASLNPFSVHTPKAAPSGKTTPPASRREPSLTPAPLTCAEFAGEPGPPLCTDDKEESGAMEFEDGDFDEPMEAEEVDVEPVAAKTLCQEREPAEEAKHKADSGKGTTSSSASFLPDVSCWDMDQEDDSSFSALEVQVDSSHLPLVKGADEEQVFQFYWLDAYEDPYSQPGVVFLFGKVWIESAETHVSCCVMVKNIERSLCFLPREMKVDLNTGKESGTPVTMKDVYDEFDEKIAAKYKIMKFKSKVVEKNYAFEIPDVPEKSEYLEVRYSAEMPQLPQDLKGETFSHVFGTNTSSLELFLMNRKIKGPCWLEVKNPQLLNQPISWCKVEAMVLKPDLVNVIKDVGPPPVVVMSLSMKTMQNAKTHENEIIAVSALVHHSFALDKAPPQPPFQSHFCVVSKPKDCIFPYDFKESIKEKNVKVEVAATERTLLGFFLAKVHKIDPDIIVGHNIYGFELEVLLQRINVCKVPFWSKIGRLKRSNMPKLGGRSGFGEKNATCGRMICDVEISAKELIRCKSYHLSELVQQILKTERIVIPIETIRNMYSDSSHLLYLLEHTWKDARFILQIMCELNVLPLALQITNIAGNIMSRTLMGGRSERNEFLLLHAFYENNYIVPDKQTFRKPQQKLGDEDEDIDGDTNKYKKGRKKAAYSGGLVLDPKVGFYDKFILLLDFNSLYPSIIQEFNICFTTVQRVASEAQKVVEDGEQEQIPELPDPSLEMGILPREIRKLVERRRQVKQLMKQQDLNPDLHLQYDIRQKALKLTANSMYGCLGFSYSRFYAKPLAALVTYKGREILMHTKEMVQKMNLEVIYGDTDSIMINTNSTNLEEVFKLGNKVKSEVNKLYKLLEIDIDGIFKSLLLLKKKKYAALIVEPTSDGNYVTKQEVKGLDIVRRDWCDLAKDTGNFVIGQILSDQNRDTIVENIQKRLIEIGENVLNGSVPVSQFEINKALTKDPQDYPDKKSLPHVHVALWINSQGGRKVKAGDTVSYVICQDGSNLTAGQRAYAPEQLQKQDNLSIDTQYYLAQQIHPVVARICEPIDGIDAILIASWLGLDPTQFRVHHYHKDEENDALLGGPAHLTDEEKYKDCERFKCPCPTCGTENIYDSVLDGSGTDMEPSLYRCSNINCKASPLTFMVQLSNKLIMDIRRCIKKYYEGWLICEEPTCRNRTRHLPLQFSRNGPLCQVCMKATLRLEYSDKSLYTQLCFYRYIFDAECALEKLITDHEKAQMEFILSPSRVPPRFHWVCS

DNA polymerase β [2] = molecular target: T2, DNA polymerase β (Rattus norvegicus, UniProt P06766); assay: DNA polymerase assay, pol. β; format: biochemical; conditions: for MIC Pol. β: Minimum inhibitory concentration: dose that resulted in inhibition of 80% or more of the activity; for Relative activity: Pol. β, Table III
[3] = molecular target: Bovine pancreas deoxyribonuclease I (Bos taurus, UniProt P00639); assay: Deoxyribonuclease I activity assay; format: biochemical; conditions: 20 µM compound, 0.05 units enzyme; Fig. 3
Chain of Bovine pancreas deoxyribonuclease I (P00639 23-282): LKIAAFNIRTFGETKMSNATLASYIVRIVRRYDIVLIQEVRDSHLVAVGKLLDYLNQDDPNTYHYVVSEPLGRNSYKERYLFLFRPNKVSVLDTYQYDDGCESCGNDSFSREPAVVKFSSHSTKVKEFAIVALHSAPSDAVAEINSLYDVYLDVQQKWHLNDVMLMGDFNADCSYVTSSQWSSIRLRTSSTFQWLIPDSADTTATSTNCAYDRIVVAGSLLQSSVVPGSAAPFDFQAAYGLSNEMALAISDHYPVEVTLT

[4] = molecular target: HIV-1 reverse transcriptase (Human immunodeficiency virus type 1 group M subtype B, UniProt P03366); assay: HIV-1 reverse transcriptase activity assay; format: biochemical; conditions: 20 µM compound, 0.05 units enzyme; Fig. 3
T4 DNA polymerase = molecular target: T3, T4 DNA polymerase (Enterobacteria phage T4, UniProt P04415); assay: T4 DNA polymerase activity assay; format: biochemical; conditions: 20 µM compound, 0.05 units enzyme; Fig. 3
T3 sequence (P04415 1-898): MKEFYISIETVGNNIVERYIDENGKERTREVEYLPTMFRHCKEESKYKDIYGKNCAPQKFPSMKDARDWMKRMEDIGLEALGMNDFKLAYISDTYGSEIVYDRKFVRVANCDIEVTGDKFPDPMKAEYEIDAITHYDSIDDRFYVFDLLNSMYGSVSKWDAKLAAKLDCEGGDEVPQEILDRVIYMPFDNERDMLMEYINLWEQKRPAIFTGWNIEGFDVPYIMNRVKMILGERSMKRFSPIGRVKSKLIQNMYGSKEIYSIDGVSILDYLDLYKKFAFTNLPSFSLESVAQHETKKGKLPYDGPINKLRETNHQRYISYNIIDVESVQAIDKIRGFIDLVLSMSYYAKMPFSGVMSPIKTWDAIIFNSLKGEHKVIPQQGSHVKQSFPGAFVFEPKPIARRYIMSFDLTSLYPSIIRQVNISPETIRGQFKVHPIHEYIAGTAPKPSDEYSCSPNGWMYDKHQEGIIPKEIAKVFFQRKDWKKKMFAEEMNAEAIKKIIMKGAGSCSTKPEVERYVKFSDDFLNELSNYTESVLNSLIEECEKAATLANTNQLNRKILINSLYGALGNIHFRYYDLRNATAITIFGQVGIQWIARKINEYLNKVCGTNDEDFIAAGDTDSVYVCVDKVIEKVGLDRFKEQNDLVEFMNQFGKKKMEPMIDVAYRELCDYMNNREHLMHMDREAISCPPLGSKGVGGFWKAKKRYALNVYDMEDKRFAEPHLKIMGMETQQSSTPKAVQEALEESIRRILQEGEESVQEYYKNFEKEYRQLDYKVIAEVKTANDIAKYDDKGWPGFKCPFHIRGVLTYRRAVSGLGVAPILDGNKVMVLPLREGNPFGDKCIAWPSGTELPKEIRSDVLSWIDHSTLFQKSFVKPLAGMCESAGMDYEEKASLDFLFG

calf thymus TdT = calf thymus TdT (Bos taurus, UniProt P06526); assay: TdT activity assay; format: biochemical; conditions: 20 µM compound, 0.05 units enzyme; Fig. 3
Chain of calf thymus TdT (P06526 whole entry): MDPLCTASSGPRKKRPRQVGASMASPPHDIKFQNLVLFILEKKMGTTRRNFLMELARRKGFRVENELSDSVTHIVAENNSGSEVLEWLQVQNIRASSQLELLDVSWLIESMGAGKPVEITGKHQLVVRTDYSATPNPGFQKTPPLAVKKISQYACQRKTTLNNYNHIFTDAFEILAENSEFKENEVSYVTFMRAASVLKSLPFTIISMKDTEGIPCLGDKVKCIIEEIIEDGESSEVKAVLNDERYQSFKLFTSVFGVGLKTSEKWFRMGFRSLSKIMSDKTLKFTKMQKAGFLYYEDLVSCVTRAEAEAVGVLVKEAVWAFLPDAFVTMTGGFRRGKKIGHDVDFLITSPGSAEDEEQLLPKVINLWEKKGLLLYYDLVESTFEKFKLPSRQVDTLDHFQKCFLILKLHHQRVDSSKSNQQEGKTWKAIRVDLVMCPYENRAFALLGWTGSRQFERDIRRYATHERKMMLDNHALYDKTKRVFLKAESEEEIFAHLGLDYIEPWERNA

Taq DNA polymerase = Taq DNA polymerase (Thermus aquaticus, UniProt P19821); assay: Taq DNA polymerase activity assay; format: biochemical; conditions: 20 µM compound, 0.05 units enzyme; Fig. 3
Chain of Taq DNA polymerase (P19821 whole entry): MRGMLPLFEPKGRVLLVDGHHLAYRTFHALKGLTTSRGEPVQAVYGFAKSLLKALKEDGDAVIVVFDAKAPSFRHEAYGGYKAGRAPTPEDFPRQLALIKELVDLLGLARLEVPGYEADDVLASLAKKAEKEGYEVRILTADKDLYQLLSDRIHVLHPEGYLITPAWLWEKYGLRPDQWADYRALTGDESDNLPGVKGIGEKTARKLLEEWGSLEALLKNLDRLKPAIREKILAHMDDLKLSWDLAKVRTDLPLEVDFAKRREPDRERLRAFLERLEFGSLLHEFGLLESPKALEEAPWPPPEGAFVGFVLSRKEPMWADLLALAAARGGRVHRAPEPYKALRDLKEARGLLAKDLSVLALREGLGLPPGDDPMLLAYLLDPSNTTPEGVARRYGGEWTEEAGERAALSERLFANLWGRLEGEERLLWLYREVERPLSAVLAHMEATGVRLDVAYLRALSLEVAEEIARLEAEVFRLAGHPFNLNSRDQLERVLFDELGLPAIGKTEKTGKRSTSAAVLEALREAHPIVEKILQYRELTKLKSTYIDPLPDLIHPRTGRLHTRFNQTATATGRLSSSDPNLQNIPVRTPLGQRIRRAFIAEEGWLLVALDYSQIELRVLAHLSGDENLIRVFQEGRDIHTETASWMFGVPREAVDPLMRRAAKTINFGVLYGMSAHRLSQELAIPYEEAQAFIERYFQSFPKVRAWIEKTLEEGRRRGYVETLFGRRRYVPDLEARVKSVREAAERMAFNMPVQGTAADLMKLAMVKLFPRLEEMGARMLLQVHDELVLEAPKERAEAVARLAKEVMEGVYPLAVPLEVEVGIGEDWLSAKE

DNA polymerase α [5] = molecular target: T1, DNA polymerase α; assay: Kinetic analysis of pol. α inhibition; format: biochemical, calf; conditions: for Inhibitory mode: from Lineweaver Burk plot
T7 RNA polymerase = T7 RNA polymerase (Escherichia phage T7, UniProt P00573); conditions: 20 µM compound, 0.05 units enzyme; Fig. 3
Chain of T7 RNA polymerase (P00573 whole entry): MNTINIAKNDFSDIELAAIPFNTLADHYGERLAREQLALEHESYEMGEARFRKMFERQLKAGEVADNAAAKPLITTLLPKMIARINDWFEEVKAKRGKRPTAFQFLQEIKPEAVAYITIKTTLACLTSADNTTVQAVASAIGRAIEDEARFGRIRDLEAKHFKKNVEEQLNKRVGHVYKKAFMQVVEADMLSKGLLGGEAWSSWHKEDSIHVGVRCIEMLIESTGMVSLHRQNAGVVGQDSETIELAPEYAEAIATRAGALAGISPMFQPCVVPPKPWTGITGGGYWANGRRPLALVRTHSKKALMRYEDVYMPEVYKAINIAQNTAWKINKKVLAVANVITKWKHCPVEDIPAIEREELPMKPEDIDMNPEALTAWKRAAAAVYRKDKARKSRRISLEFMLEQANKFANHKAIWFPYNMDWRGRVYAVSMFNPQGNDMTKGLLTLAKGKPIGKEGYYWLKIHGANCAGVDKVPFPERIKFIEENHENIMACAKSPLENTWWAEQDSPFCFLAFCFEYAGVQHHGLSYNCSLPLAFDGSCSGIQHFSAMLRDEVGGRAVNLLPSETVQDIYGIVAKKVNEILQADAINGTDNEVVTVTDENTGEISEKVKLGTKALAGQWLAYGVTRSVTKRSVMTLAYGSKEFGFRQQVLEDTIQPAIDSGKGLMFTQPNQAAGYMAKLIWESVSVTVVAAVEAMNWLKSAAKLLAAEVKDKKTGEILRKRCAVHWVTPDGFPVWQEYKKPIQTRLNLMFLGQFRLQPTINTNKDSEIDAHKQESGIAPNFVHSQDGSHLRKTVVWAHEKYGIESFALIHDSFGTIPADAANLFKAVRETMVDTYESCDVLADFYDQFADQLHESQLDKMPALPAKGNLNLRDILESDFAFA

E. coli DNA polymerase I = E. coli DNA polymerase I (Escherichia coli, UniProt P00582); assay: E. coli DNA polymerase I activity assay; format: biochemical; conditions: 20 µM compound, 0.05 units enzyme; Fig. 3
Chain of E. coli DNA polymerase I (P00582 whole entry): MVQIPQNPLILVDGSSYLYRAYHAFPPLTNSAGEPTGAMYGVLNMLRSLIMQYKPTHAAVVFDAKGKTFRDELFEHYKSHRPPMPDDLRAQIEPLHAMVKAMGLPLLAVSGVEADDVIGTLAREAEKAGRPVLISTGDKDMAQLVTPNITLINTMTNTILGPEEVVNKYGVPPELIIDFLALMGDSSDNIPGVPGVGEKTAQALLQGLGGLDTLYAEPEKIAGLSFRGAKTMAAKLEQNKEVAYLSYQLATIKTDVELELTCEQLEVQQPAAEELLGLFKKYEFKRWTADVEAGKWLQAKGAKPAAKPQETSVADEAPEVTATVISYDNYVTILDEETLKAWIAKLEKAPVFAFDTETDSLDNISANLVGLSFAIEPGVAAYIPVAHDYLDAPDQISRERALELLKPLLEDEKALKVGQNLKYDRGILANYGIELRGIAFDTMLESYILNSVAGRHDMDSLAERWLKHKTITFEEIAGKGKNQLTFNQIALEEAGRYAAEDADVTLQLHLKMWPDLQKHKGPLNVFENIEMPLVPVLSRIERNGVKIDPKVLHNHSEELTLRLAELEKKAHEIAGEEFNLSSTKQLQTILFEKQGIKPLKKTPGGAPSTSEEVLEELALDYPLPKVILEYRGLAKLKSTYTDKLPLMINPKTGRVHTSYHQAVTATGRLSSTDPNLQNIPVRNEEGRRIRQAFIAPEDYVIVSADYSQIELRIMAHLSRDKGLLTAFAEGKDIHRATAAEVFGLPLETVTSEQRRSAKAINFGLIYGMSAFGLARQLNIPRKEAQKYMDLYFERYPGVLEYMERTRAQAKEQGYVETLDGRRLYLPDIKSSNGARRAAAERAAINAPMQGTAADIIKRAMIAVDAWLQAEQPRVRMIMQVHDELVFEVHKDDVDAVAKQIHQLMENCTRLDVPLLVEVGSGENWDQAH

DNA polymerase β [6] = molecular target: T2, DNA polymerase β; assay: Kinetic analysis of pol. β inhibition; format: biochemical; conditions: for Inhibitory mode: from Lineweaver Burk plot
T4 polynucleotide kinase = T4 polynucleotide kinase (Enterobacteria phage T4, UniProt P06855); conditions: 20 µM compound, 0.05 units enzyme; Fig. 3
Chain of T4 polynucleotide kinase (P06855 whole entry): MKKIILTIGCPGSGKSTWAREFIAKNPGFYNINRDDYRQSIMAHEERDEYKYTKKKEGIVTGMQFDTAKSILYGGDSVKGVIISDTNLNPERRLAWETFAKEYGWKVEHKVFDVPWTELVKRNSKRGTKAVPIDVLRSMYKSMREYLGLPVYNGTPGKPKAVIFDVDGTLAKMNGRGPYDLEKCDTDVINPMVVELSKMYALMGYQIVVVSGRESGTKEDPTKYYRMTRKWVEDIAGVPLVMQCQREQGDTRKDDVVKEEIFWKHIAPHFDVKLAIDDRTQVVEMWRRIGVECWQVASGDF

[7] = read-out: IC50 Pol. β, 50%-inhibitory concentration, Table I
[8] = nucleotide substrate dTTP, from Dixon plot
[9] = template-primer poly(dA)/oligo(dT)12-18, from Dixon plot
[10] = versus nucleotide substrate dTTP

pIC50 (DNA polymerase β [2]; [7]): < 3.00
Structure (SMILES): CCCCCCCCCCCCCC(=O)OCC(CO)OC(=O)CCCCCCCCCCCCC (stereo not shown)
MIC Pol. α (DNA polymerase α [1]): > 1000 µM
pIC50 (DNA polymerase α [1]; read-out: IC50 Pol. α): 3.26

pIC50 (DNA polymerase β [2]; [7]): < 3.00
Structure (SMILES): CCCCCCCCCCCCCCCC(=O)OCC(CO)OC(=O)CCCCCCCCCCCCCCC (stereo not shown)
MIC Pol. α (DNA polymerase α [1]): > 1000 µM
pIC50 (DNA polymerase α [1]; read-out: IC50 Pol. α): 3.33

MIC Pol. β (DNA polymerase β [2]; Table I): 37 µM and 40 µM
pIC50 (DNA polymerase β [2]; [7]): 4.64 and 4.70
Structure (SMILES): CCCCCCCCCCCCCC(=O)OC[C@H](CO[C@H]1O[C@H](CS(=O)(=O)O)[C@@H](O)[C@H](O)[C@H]1O)OC(=O)CCCCCCCCCCCCC [C14--SQDG]
MIC Pol. α (DNA polymerase α [1]): 5.3 µM and 5.2 µM
pIC50 (DNA polymerase α [1]; read-out: IC50 Pol. α): 5.74 and 5.72

MIC Pol. β (DNA polymerase β [2]; Table I): 45 µM and 46 µM
pIC50 (DNA polymerase β [2]; [7]): 4.60
Structure (SMILES): CCCCCCCCCCCCCCCC(=O)OC[C@H](CO[C@H]1O[C@H](CS(=O)(=O)O)[C@@H](O)[C@H](O)[C@H]1O)OC(=O)CCCCCCCCCCCCCCC [C16--SQDG]
MIC Pol. α (DNA polymerase α [1]): 3.4 µM and 3.6 µM

MIC Pol. β (DNA polymerase β [2]; Table I): 43 µM and 46 µM
pIC50 (DNA polymerase β [2]; [7]): 4.47 and 4.44
Structure (SMILES): CCCCCCCCCCCCCCCC(=O)OC[C@@H](O)CO[C@H]1O[C@H](CS(=O)(=O)O)[C@@H](O)[C@H](O)[C@H]1O [C16--SQMG]
MIC Pol. α (DNA polymerase α [1]): 9.1 µM and 14 µM
pIC50 (DNA polymerase α [1]; read-out: IC50 Pol. α): 5.40 and 5.23

Structure (SMILES): CCCCCCCCCCCCCCCCCC(=O)OC[C@H](CO[C@H]1O[C@H](CS(=O)(=O)O)[C@@H](O)[C@H](O)[C@H]1O)OC(=O)CCCCCCCCCCCCCCCCC [C18--SQDG]
Effect on deoxyribonuclease I activity [3]: hardly affected
Effect on HIV-1 reverse transcriptase activity [4]: moderate inhibitory effect
Effect on T4 DNA polymerase activity (T4 DNA polymerase): hardly affected
MIC Pol. α (DNA polymerase α [1]): 1.1 µM and 1.2 µM
Relative activity (DNA polymerase α [1]; 2 µM compound + 40 µM poly(rC)): 12%
Relative activity (DNA polymerase α [1]; 2 µM compound + 0.05% NP-40): 15%
Relative activity (DNA polymerase α [1]; 2 µM compound + 80 g/ml BSA): 16%
Relative activity (DNA polymerase α [1]; 2 µM compound alone): 10%
pIC50 (DNA polymerase α [1]; read-out: IC50 Pol. α): 6.40
Effect on TdT activity (calf thymus TdT): inhibited
Effect on Taq DNA polymerase activity (Taq DNA polymerase): hardly affected
MIC Pol. β (DNA polymerase β [2]; Table I): 60 µM and 62 µM
Relative activity (DNA polymerase β [2]; 20 µM compound + 40 µM poly(rC)): 59%
Relative activity (DNA polymerase β [2]; 20 µM compound + 0.05% NP-40): 101%
Relative activity (DNA polymerase β [2]; 20 µM compound + 80 g/ml BSA): 63%
Relative activity (DNA polymerase β [2]; 20 µM compound alone): 65%
pIC50 (DNA polymerase β [2]; [7]): 4.43 and 4.37
pKi (DNA polymerase α [5]; [8]): 6.22
Vmax (DNA polymerase α [5]; nucleotide substrate dTTP, sulfolipid conc. 0.2): 170 pmol/h
Vmax (DNA polymerase α [5]; nucleotide substrate dTTP, sulfolipid conc. 0.4): 100 pmol/h
Vmax (DNA polymerase α [5]; nucleotide substrate dTTP, sulfolipid conc. 0.6): 56 pmol/h
pKi (DNA polymerase α [5]; [9]): 6.70
Vmax (DNA polymerase α [5]; template-primer, sulfolipid conc. 0.2): 100 pmol/h
Vmax (DNA polymerase α [5]; template-primer, sulfolipid conc. 0.4): 56 pmol/h
Vmax (DNA polymerase α [5]; template-primer, sulfolipid conc. 0.6): 40 pmol/h
Inhibitory mode (DNA polymerase α [5]; [10]): Non-competitive
Inhibitory mode (DNA polymerase α [5]; versus template-primer): Non-competitive
Effect on T7 RNA polymerase activity (T7 RNA polymerase): hardly affected
Effect on E. coli DNA polymerase I activity (E. coli DNA polymerase I): hardly affected
pKi (DNA polymerase β [6]; [8]): 4.44
Vmax (DNA polymerase β [6]; nucleotide substrate dTTP, one value printed for all sulfolipid conc.): 38 pmol/h
pKi (DNA polymerase β [6]; [9]): 5.30
Inhibitory mode (DNA polymerase β [6]; [10]): Competitive
Inhibitory mode (DNA polymerase β [6]; versus template-primer): Competitive
Effect on T4 polynucleotide kinase activity (T4 polynucleotide kinase): hardly affected

Structure (SMILES): O=S(=O)(O)C[C@@H]1OC(OCC(O)CO)[C@@H](O)[C@H](O)[C@@H]1O (stereo partly shown) [I&II&III + Fucose + -]
pIC50 (DNA polymerase α [1]; read-out: IC50 Pol. α): < 3.00
pIC50 (DNA polymerase β [2]; [7]): < 3.00

Structure (SMILES): O=S(=O)(O)C[C@H]1O[C@H](OCC(O)CO)[C@H](O)[C@@H](O)[C@@H]1O (stereo partly shown) [I&II&III + Quinovose + -]
pIC50 (DNA polymerase α [1]; read-out: IC50 Pol. α): < 3.00
pIC50 (DNA polymerase β [2]; [7]): < 3.00

pIC50 (DNA polymerase β [2]): < 3.00
Structure (SMILES): C[C@H](O)[C@@H](O)[C@@H](O)[C@H](O)C=O [II - Fucose - -, Fucose]
pIC50 (DNA polymerase α [1]; IC50 Pol. α): < 3.00
